PubChem BioAssay (NCI)
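How tested: cells in 96-well plates exposed to compound for 48 hours at five concentrations. The concentration for full growth arrest is given as TGI.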

What was measured:
Assay in all cases: NCI tumour cell line growth inhibition, 48 h
HOP-62 NSCLC = system: HOP-62 NSCLC
M14 melanoma = system: M14 melanoma
SN12C renal = system: SN12C renal
TK-10 renal = system: TK-10 renal
SK-OV-3 ovarian = system: SK-OV-3 ovarian
LOX IMVI melanoma = system: LOX IMVI melanoma
SNB-19 CNS = system: SNB-19 CNS
IGROV1 ovarian = system: IGROV1 ovarian
RXF 393 renal = system: RXF 393 renal
HT29 colon = system: HT29 colon
MDA-N = system: MDA-N

Row | Structure (SMILES) | TGI (HOP-62 NSCLC) | TGI (M14 melanoma) | TGI (SN12C renal) | TGI (TK-10 renal) | TGI (SK-OV-3 ovarian) | TGI (LOX IMVI melanoma) | TGI (SNB-19 CNS) | TGI (IGROV1 ovarian) | TGI (RXF 393 renal) | TGI (HT29 colon) | TGI (MDA-N)
1 | CCOC(=O)c1cc2c(OCc3ccccc3)c(OC)cc3c2c(n1)N(c1ccc(OC)cc1)C(C)C3 (stereo not given) | > 50 µM | > 50 µM | > 50 µM | > 50 µM | > 50 µM | > 50 µM | > 50 µM | > 50 µM | > 50 µM | – | –
2 | COc1ccc(C(Cc2ccccc2)C2NC(=S)NC2=O)cc1 (stereo not given) | > 25 µM | > 25 µM | > 25 µM | > 25 µM | > 25 µM | > 25 µM | > 25 µM | > 25 µM | > 25 µM | > 25 µM | –
3 | CC1(C)CC2(C)CC1CC2(O)c1ccccc1 (stereo not given) | > 100 µM | > 100 µM | > 100 µM | > 100 µM | > 100 µM | – | > 100 µM | > 100 µM | > 100 µM | > 100 µM | > 100 µM
4 | COC(=O)CC(C(C(=O)OCc1ccccc1)C(C)O)N1C(=O)OC(c2ccccc2)C1c1ccccc1 (stereo not given) | > 100 µM | > 100 µM | > 100 µM | > 100 µM | – | > 100 µM | > 100 µM | > 100 µM | > 100 µM | > 100 µM | –
5 | COc1cc(C2C(Cl)C(=O)N2NC(=O)c2ccc(NC(C)=O)cc2)ccc1O (stereo not given) | > 100 µM | > 100 µM | > 100 µM | > 100 µM | > 100 µM | > 100 µM | > 100 µM | > 100 µM | > 100 µM | > 100 µM | –
6 | CC(=O)NC1=C(NCCCl)C(=O)c2ccccc2C1=O | > 100 µM | 27.7 µM | > 100 µM | – | > 100 µM | – | > 100 µM | > 100 µM | 69.8 µM | 75.1 µM | 38.3 µM
7 | C=C1[C@@](C)([C@@H]2CCCS2)[C@H]2C(C)=C[C@]1(C)n1c(=O)n(-c3ccccc3)c(=O)n12 | > 100 µM | > 100 µM | > 100 µM | > 100 µM | > 100 µM | – | > 100 µM | > 100 µM | – | > 100 µM | > 100 µM
8 | Cc1cn(C2CC(CCCO)C(CO)O2)c(=O)[nH]c1=O (stereo not given) | > 100 µM | > 100 µM | > 100 µM | > 100 µM | > 100 µM | > 100 µM | > 100 µM | > 100 µM | > 100 µM | > 100 µM | –
9 | O=C1CC(C(CC(=O)c2ccccc2)c2ccccc2)C(=O)c2ccccc2N1 (stereo not given) | > 100 µM | > 100 µM | > 100 µM | – | > 100 µM | > 100 µM | > 100 µM | > 100 µM | – | > 100 µM | > 100 µM
10 | Cc1ccc(N(O)C(C)(C)C)cc1 | > 100 µM | – | > 100 µM | – | > 100 µM | > 100 µM | > 100 µM | > 100 µM | > 100 µM | > 100 µM | –
11 | COc1cccc(/C(Cl)=C(\C=O)c2cccc(OC)c2)c1 | 30.1 µM | 26.1 µM | 34.7 µM | 51.2 µM | 41.7 µM | 20.3 µM | 38.2 µM | 47.8 µM | 25.1 µM | 24.9 µM | –
12 | CC(=O)OC1C2CCC3C(C)(O)C4CC(O)C(C)(C)C4(O)C(O)CC13CC2(C)O (stereo not given) | > 100 µM | > 100 µM | > 100 µM | > 100 µM | > 100 µM | > 100 µM | > 100 µM | > 100 µM | – | > 100 µM | > 100 µM
13 | O=NN(CCF)C(=O)NC1CC2CCC1C2 (stereo not given) | 97.7 µM | – | > 100 µM | – | > 100 µM | > 100 µM | > 100 µM | > 100 µM | > 100 µM | > 100 µM | –
14 | Cc1ccnc2nc(N)ccc12 | – | > 100 µM | > 100 µM | > 100 µM | > 100 µM | – | > 100 µM | > 100 µM | > 100 µM | > 100 µM | > 100 µM
15 | CCC(COC(=O)CC[C@@H](NC(=O)C(C)NC(=O)C(C)OC1C(O)C(CO)OC(OCc2ccccc2)C1NC(C)=O)C(N)=O)NC1c2ccccc2Nc2cccc([N+](=O)[O-])c21 (stereo not given in full) | > 100 µM | > 100 µM | > 100 µM | > 100 µM | > 100 µM | > 100 µM | > 100 µM | > 100 µM | 84.6 µM | > 100 µM | –
16 | O=C(Sc1c(-c2ccccc2)c(=O)n(-c2ccccc2)c(=S)n1-c1ccccc1)c1cccs1 | > 100 µM | > 100 µM | > 100 µM | > 100 µM | > 100 µM | 61.2 µM | > 100 µM | > 100 µM | – | > 100 µM | > 100 µM
